Measurements: publication PMC5218480 (PLoS ONE, 2017)

System: MV-4-11 cells
Test: Gene expression microarray analysis (Affymetrix PrimeView) and GSEA
Assay type: cell-based, human
Set-up: RFU PODN (11730768_x_at) / Fold change /veh PODN (11730768_x_at) / RFU LINC00158 (11744669_a_at) / Fold change /veh LINC00158 (11744669_a_at) / RFU DUSP10 (11751237_a_at) / Fold change /veh DUSP10 (11751237_a_at) / RFU ID3 (11757404_x_at) / Fold change /veh ID3 (11757404_x_at) / RFU PLEKHG5 (11737974_s_at) / Fold change /veh PLEKHG5 (11737974_s_at) / RFU LRRC4B (11730491_at) / Fold change /veh LRRC4B (11730491_at) / RFU GIMAP4 (11747438_a_at) / Fold change /veh GIMAP4 (11747438_a_at) / RFU KRT8 (11758183_x_at) / Fold change /veh KRT8 (11758183_x_at) / RFU CNN1 (11734310_a_at) / Fold change /veh CNN1 (11734310_a_at) / RFU VPS37D (11726825_at) / Fold change /veh VPS37D (11726825_at) / RFU C10orf10 (11716522_x_at) / Fold change /veh C10orf10 (11716522_x_at) / RFU KIR2DL2 /// KIR2DL4 /// KIR2DL5A /// KIR2DL5B /// KIR2DS1 /// KIR2DS2 /// KIR2DS3 /// KIR2DS4 /// KIR3DL3 /// KIR3DL3 /// KIR3DS1 (11738374_at) / Fold change /veh KIR2DL2 /// KIR2DL4 /// KIR2DL5A /// KIR2DL5B /// KIR2DS1 /// KIR2DS2 /// KIR2DS3 /// KIR2DS4 /// KIR3DL3 /// KIR3DL3 /// KIR3DS1 (11738374_at) / RFU C1QL1 (11718748_at) / Fold change /veh C1QL1 (11718748_at) / RFU TMPRSS4 (11747572_a_at) / Fold change /veh TMPRSS4 (11747572_a_at) / RFU HAMP (11756126_x_at) / Fold change /veh HAMP (11756126_x_at) / RFU RNFT2 (11725882_a_at) / Fold change /veh RNFT2 (11725882_a_at) / RFU NR4A2 (11747474_a_at) / Fold change /veh NR4A2 (11747474_a_at) / RFU ABCC12 (11746883_a_at) / Fold change /veh ABCC12 (11746883_a_at) / RFU TMEM136 (11760407_x_at) / Fold change /veh TMEM136 (11760407_x_at) / RFU CLDN22 /// WWC2 (11732394_at) / Fold change /veh CLDN22 /// WWC2 (11732394_at) / RFU HLA-DPB1 (11760878_x_at) / Fold change /veh HLA-DPB1 (11760878_x_at) / RFU SPINT1 (11716480_a_at) / Fold change /veh SPINT1 (11716480_a_at) / RFU GAP43 (11754022_s_at) / Fold change /veh GAP43 (11754022_s_at) / RFU A4GNT (11735810_at) / Fold change /veh A4GNT (11735810_at) / RFU PRB3 (11715151_x_at) / Fold change /veh PRB3 (11715151_x_at) / RFU TUBB4B (11761932_at) / Fold change /veh TUBB4B (11761932_at) / RFU CAPN14 (11732068_a_at) / Fold change /veh CAPN14 (11732068_a_at) / RFU TMCC2 (11721928_a_at) / Fold change /veh TMCC2 (11721928_a_at) / RFU IRGQ (11745062_a_at) / Fold change /veh IRGQ (11745062_a_at) / RFU FAM174B (11720279_a_at) / Fold change /veh FAM174B (11720279_a_at) / RFU TMPRSS4 (11748680_a_at) / Fold change /veh TMPRSS4 (11748680_a_at) / RFU FAM212B (11763350_a_at) / Fold change /veh FAM212B (11763350_a_at) / RFU PLEKHG5 (11743358_a_at) / Fold change /veh PLEKHG5 (11743358_a_at) / RFU ZSCAN30 (11745921_a_at) / Fold change /veh ZSCAN30 (11745921_a_at) / RFU CMKLR1 (11741424_a_at) / Fold change /veh CMKLR1 (11741424_a_at) / RFU LOC101060620 /// MAPK8IP1 (11723275_at) / Fold change /veh LOC101060620 /// MAPK8IP1 (11723275_at) / RFU SPTSSB (11747773_x_at) / Fold change /veh SPTSSB (11747773_x_at) / RFU PRSS12 (11739890_at) / Fold change /veh PRSS12 (11739890_at) / RFU BIN1 (11741810_x_at) / Fold change /veh BIN1 (11741810_x_at) / RFU WNT11 (11732464_a_at) / Fold change /veh WNT11 (11732464_a_at) / RFU C10orf10 (11716521_a_at) / Fold change /veh C10orf10 (11716521_a_at) / RFU C5orf56 (11738089_at) / Fold change /veh C5orf56 (11738089_at) / RFU CYB561 (11721691_x_at) / Fold change /veh CYB561 (11721691_x_at) / RFU ANKRD19P (11752326_a_at) / Fold change /veh ANKRD19P (11752326_a_at) / RFU OR2T12 /// OR2T33 /// OR2T8 (11738714_s_at) / Fold change /veh OR2T12 /// OR2T33 /// OR2T8 (11738714_s_at) / RFU VCAN (11748164_a_at) / Fold change /veh VCAN (11748164_a_at) / RFU JSRP1 (11732532_at) / Fold change /veh JSRP1 (11732532_at) / RFU KRTAP10-11 (11738290_x_at) / Fold change /veh KRTAP10-11 (11738290_x_at) / RFU MYO3A (11730013_a_at) / Fold change /veh MYO3A (11730013_a_at) / RFU EBF3 (11725865_a_at) / Fold change /veh EBF3 (11725865_a_at) / RFU CAMK2N1 (11719241_x_at) / Fold change /veh CAMK2N1 (11719241_x_at) / RFU C5orf56 (11738088_a_at) / Fold change /veh C5orf56 (11738088_a_at) / RFU OLFML3 (11715873_a_at) / Fold change /veh OLFML3 (11715873_a_at) / RFU LOC100653217 /// NTM (11731650_a_at) / Fold change /veh LOC100653217 /// NTM (11731650_a_at) / RFU MAPK11 (11762145_a_at) / Fold change /veh MAPK11 (11762145_a_at) / RFU FIZ1 (11724087_x_at) / Fold change /veh FIZ1 (11724087_x_at) / RFU OASL (11726364_x_at) / Fold change /veh OASL (11726364_x_at) / RFU SOX15 (11748057_x_at) / Fold change /veh SOX15 (11748057_x_at) / RFU CD79A (11719716_a_at) / Fold change /veh CD79A (11719716_a_at) / RFU HIST1H1D (11736915_at) / Fold change /veh HIST1H1D (11736915_at) / RFU CASKIN2 (11723855_a_at) / Fold change /veh CASKIN2 (11723855_a_at) / RFU LOC730098 (11760151_x_at) / Fold change /veh LOC730098 (11760151_x_at) / RFU OR4N2 (11742367_at) / Fold change /veh OR4N2 (11742367_at) / RFU PRRT2 (11749266_a_at) / Fold change /veh PRRT2 (11749266_a_at) / RFU SNX32 (11753110_a_at) / Fold change /veh SNX32 (11753110_a_at) / RFU CDHR5 (11726645_a_at) / Fold change /veh CDHR5 (11726645_a_at) / RFU RCAN1 (11760418_a_at) / Fold change /veh RCAN1 (11760418_a_at) / RFU FAM167A (11723789_a_at) / Fold change /veh FAM167A (11723789_a_at) / RFU FAM26E (11764081_at) / Fold change /veh FAM26E (11764081_at) / RFU ISYNA1 (11749810_s_at) / Fold change /veh ISYNA1 (11749810_s_at) / RFU ACY1 (11761880_at) / Fold change /veh ACY1 (11761880_at) / RFU 11764098_at / Fold change /veh 11764098_at / RFU SAMD14 (11745864_x_at) / Fold change /veh SAMD14 (11745864_x_at) / RFU NPB (11741838_a_at) / Fold change /veh NPB (11741838_a_at) / RFU TMPRSS6 (11731388_a_at) / Fold change /veh TMPRSS6 (11731388_a_at) / RFU KRTAP10-2 (11738614_at) / Fold change /veh KRTAP10-2 (11738614_at) / RFU ARHGAP8 /// PRR5-ARHGAP8 (11727945_x_at) / Fold change /veh ARHGAP8 /// PRR5-ARHGAP8 (11727945_x_at) / RFU KRTAP5-7 /// NADSYN1 (11734609_at) / Fold change /veh KRTAP5-7 /// NADSYN1 (11734609_at) / RFU RASL12 (11751679_a_at) / Fold change /veh RASL12 (11751679_a_at) / RFU CDKN2B (11736163_a_at) / Fold change /veh CDKN2B (11736163_a_at) / RFU PRF1 (11729649_at) / Fold change /veh PRF1 (11729649_at) / RFU, ZNF638 /// ZNF638-IT1 / Fold change vs veh, ZNF638 /// ZNF638-IT1 / RFU, PANK3 / Fold change vs veh, PANK3 / RFU, SH3YL1 / Fold change vs veh, SH3YL1 / RFU, ZEB2 / Fold change vs veh, ZEB2 / RFU, NRIP1 / Fold change vs veh, NRIP1 / RFU, PTTG1IP / Fold change vs veh, PTTG1IP / RFU, CAPN2 / Fold change vs veh, CAPN2 / RFU, MED14 / Fold change vs veh, MED14 / RFU, SNORA58 / Fold change vs veh, SNORA58 / RFU, C1orf63 / Fold change vs veh, C1orf63 / RFU, LRRFIP1 / Fold change vs veh, LRRFIP1 / RFU, NDUFAF7 / Fold change vs veh, NDUFAF7 / RFU, SLC12A2 / Fold change vs veh, SLC12A2 / RFU, IBTK / Fold change vs veh, IBTK / RFU, ESF1 / Fold change vs veh, ESF1 / Fold change vs veh, TMEM50B / RFU, TAOK1 / Fold change vs veh, TAOK1 / RFU, ACBD3 / Fold change vs veh, ACBD3 / RFU, TMA16 / Fold change vs veh, TMA16 / RFU, RWDD3 / Fold change vs veh, RWDD3 / RFU, BCAT1 / Fold change vs veh, BCAT1 / RFU, EDEM3 / Fold change vs veh, EDEM3 / RFU, TMEM33 / Fold change vs veh, TMEM33 / RFU, WDR75 / Fold change vs veh, WDR75 / RFU, AHCTF1 / Fold change vs veh, AHCTF1 / RFU, TFRC / Fold change vs veh, TFRC / RFU, ZDHHC17 / Fold change vs veh, ZDHHC17 / RFU, NOM1 / Fold change vs veh, NOM1 / RFU, ARL8B / Fold change vs veh, ARL8B / RFU, ZBTB11 / Fold change vs veh, ZBTB11 / RFU, TAMM41 / Fold change vs veh, TAMM41 / RFU, KIAA1704 /// LOC100996395 / Fold change vs veh, KIAA1704 /// LOC100996395 / RFU, ING1 / Fold change vs veh, ING1 / RFU, TRMT61B / Fold change vs veh, TRMT61B / RFU, FUBP3 / Fold change vs veh, FUBP3 / RFU, TP53 / Fold change vs veh, TP53 / RFU, TNKS2 / Fold change vs veh, TNKS2 / RFU, ZFP14 / Fold change vs veh, ZFP14 / RFU, ACTR2 / Fold change vs veh, ACTR2 / RFU, PPP3R1 / Fold change vs veh, PPP3R1 / RFU, PIK3R1 / Fold change vs veh, PIK3R1 / RFU, HNRNPA1 / Fold change vs veh, HNRNPA1 / RFU, RNF170 / Fold change vs veh, RNF170 / RFU, ZNF28 / Fold change vs veh, ZNF28 / RFU, RNGTT / Fold change vs veh, RNGTT / RFU, OGT / Fold change vs veh, OGT / RFU, BRD1 / Fold change vs veh, BRD1 / RFU, MARS / Fold change vs veh, MARS / RFU, ZNF655 / Fold change vs veh, ZNF655 / RFU, FAHD1 / Fold change vs veh, FAHD1 / RFU, BDP1 / Fold change vs veh, BDP1 / RFU, LRRCC1 / Fold change vs veh, LRRCC1 / RFU, ARID1A / Fold change vs veh, ARID1A / RFU, ZNF146 / Fold change vs veh, ZNF146 / RFU, ZNF330 / Fold change vs veh, ZNF330 / RFU, GPN3 / Fold change vs veh, GPN3 / RFU, C9orf123 / Fold change vs veh, C9orf123 / RFU, N4BP2L2 / Fold change vs veh, N4BP2L2 / RFU, ARFIP1 / Fold change vs veh, ARFIP1 / RFU, FAM179B / Fold change vs veh, FAM179B / RFU, BCL10 / Fold change vs veh, BCL10 / RFU, UHRF1BP1L / Fold change vs veh, UHRF1BP1L / RFU, BET1 / Fold change vs veh, BET1 / RFU, CNOT2 / Fold change vs veh, CNOT2 / RFU, ZNF268 / Fold change vs veh, ZNF268 / Fold change vs veh, ZNF507 / RFU, DGCR2 / Fold change vs veh, DGCR2 / RFU, WDSUB1 / Fold change vs veh, WDSUB1 / Fold change vs veh, HSP90B1 /// MIR3652 / RFU, ADSS / Fold change vs veh, ADSS / RFU, GK / Fold change vs veh, GK / RFU, ZNF148 / Fold change vs veh, ZNF148 / RFU, TAF9 / Fold change vs veh, TAF9 / RFU, SLC1A5 / Fold change vs veh, SLC1A5 / RFU, SLMO2 / Fold change vs veh, SLMO2 / RFU, ABCC4 / Fold change vs veh, ABCC4 / RFU, LOC101060439 /// RAP1B / Fold change vs veh, LOC101060439 /// RAP1B / RFU, RFX7 / Fold change vs veh, RFX7 / RFU, GTPBP10 / Fold change vs veh, GTPBP10 / RFU, CNEP1R1 / Fold change vs veh, CNEP1R1 / RFU, BIVM-ERCC5 /// ERCC5 / Fold change vs veh, BIVM-ERCC5 /// ERCC5 / RFU, ILF3 / Fold change vs veh, ILF3 / RFU 11762660_at / Fold change /veh 11762660_at / RFU VCAN (11757783_s_at) / Fold change /veh VCAN (11757783_s_at) / RFU DDX43 (11728927_at) / Fold change /veh DDX43 (11728927_at) / RFU KRT8 (11758188_x_at) / Fold change /veh KRT8 (11758188_x_at) / RFU NKD1 (11759106_at) / Fold change /veh NKD1 (11759106_at) / RFU SRD5A1 (11742802_a_at) / Fold change /veh SRD5A1 (11742802_a_at) / RFU TPSAB1 /// TPSB2 (11721975_s_at) / Fold change /veh TPSAB1 /// TPSB2 (11721975_s_at) / RFU GSTM3 (11746129_a_at) / Fold change /veh GSTM3 (11746129_a_at) / RFU IL23R (11737362_x_at) / Fold change /veh IL23R (11737362_x_at) / RFU TMEM51 (11727254_a_at) / Fold change /veh TMEM51 (11727254_a_at) / RFU PIWIL2 (11732686_x_at) / Fold change /veh PIWIL2 (11732686_x_at) / RFU ORM1 (11744905_x_at) / Fold change /veh ORM1 (11744905_x_at) / RFU CCDC152 (11743942_at) / Fold change /veh CCDC152 (11743942_at) / RFU ECM1 (11717891_a_at) / Fold change /veh ECM1 (11717891_a_at) / RFU IL23R (11748794_a_at) / Fold change /veh IL23R (11748794_a_at) / RFU TNFAIP8L3 (11732012_x_at) / Fold change /veh TNFAIP8L3 (11732012_x_at) / RFU MBOAT4 (11741988_at) / Fold change /veh MBOAT4 (11741988_at) / RFU 11764193_at / Fold change /veh 11764193_at / RFU TMEM53 (11763286_at) / Fold change /veh TMEM53 (11763286_at) / RFU MAGEB2 (11727129_at) / Fold change /veh MAGEB2 (11727129_at) / RFU TMEM200A (11744735_a_at) / Fold change /veh TMEM200A (11744735_a_at) / RFU CCDC152 (11751479_a_at) / Fold change /veh CCDC152 (11751479_a_at) / RFU FAM211A (11726209_a_at) / Fold change /veh FAM211A (11726209_a_at) / RFU RGS16 (11746705_a_at) / Fold change /veh RGS16 (11746705_a_at) / RFU VCAN (11755009_s_at) / Fold change /veh VCAN (11755009_s_at) / RFU RHOB (11743442_s_at) / Fold change /veh RHOB (11743442_s_at) / RFU RGS16 (11720943_a_at) / Fold change /veh RGS16 (11720943_a_at) / RFU RGS16 (11720944_at) / Fold change /veh RGS16 (11720944_at) / RFU, VPS4B / Fold change vs veh, VPS4B / RFU, CREB1 / Fold change vs veh, CREB1 / RFU, DNAJC13 / Fold change vs veh, DNAJC13 / RFU, GNAQ / Fold change vs veh, GNAQ / RFU, CDK5R1 / Fold change vs veh, CDK5R1 / RFU, ZRANB3 / Fold change vs veh, ZRANB3 / RFU, CUL4A / Fold change vs veh, CUL4A / RFU, CCNY / Fold change vs veh, CCNY / RFU, UFL1 / Fold change vs veh, UFL1 / RFU, COG3 / Fold change vs veh, COG3 / RFU, DIAPH2 / Fold change vs veh, DIAPH2 / RFU, SKA2 / Fold change vs veh, SKA2 / RFU, AFF3 / Fold change vs veh, AFF3 / RFU, LMF1 / Fold change vs veh, LMF1 / RFU, IPO11 / Fold change vs veh, IPO11 / RFU, DFFB / Fold change vs veh, DFFB / RFU, FOXP1 / Fold change vs veh, FOXP1 / RFU, CARD8 / Fold change vs veh, CARD8 / RFU, STRN3 / Fold change vs veh, STRN3 / RFU, ADK / Fold change vs veh, ADK / RFU, RASSF2 / Fold change vs veh, RASSF2 / RFU, WIPF1 / Fold change vs veh, WIPF1 / RFU, LARP1B / Fold change vs veh, LARP1B / RFU, RASA1 / Fold change vs veh, RASA1 / RFU, RB1 / Fold change vs veh, RB1 / RFU, PPFIA1 / Fold change vs veh, PPFIA1 / RFU, MAT2A / Fold change vs veh, MAT2A / RFU, CCT5 / Fold change vs veh, CCT5 / RFU, WDR92 / Fold change vs veh, WDR92 / RFU, CUX1 / Fold change vs veh, CUX1 / RFU, TTC7A / Fold change vs veh, TTC7A / RFU, TMEM135 / Fold change vs veh, TMEM135 / RFU, DEPTOR / Fold change vs veh, DEPTOR / RFU, CPM / Fold change vs veh, CPM / RFU, DNAJB6 / Fold change vs veh, DNAJB6 / RFU, CACNA2D3 / Fold change vs veh, CACNA2D3 / RFU, DTX4 / Fold change vs veh, DTX4 / RFU, TFCP2 / Fold change vs veh, TFCP2 / RFU, GMCL1 /// GMCL1P1 / Fold change vs veh, GMCL1 /// GMCL1P1 / RFU, AEBP2 / Fold change vs veh, AEBP2 / RFU, SNHG1 /// SNORD22 /// SNORD25 /// SNORD26 /// SNORD27 /// SNORD28 /// SNORD29 /// SNORD31 / Fold change vs veh, SNHG1 /// SNORD22 /// SNORD25 /// SNORD26 /// SNORD27 /// SNORD28 /// SNORD29 /// SNORD31 / Fold change (Aza/veh), C12orf56 (ProbeSet 11735607_a_at) / Fold change (ACY-1035/veh), C12orf56 (ProbeSet 11735607_a_at) / Fold change (Aza/veh), FGFR1OP (ProbeSet 11751329_s_at) / Fold change (ACY-1035/veh), FGFR1OP (ProbeSet 11751329_s_at) / Fold change (Aza/veh), VPS36 (ProbeSet 11739960_a_at) / Fold change (ACY-1035/veh), VPS36 (ProbeSet 11739960_a_at) / RFU SYPL1 (11715823_x_at) / Fold change /veh SYPL1 (11715823_x_at) / RFU IGFBP7 (11715501_s_at) / Fold change /veh IGFBP7 (11715501_s_at) / RFU REEP3 (11722064_at) / Fold change /veh REEP3 (11722064_at) / RFU IGLL1 (11728026_x_at) / Fold change /veh IGLL1 (11728026_x_at): dose or concentration left out as unconfirmed
Conditions: MV-4-11 cells, 48 hours

Q: For `Nc1ncn([C@@H]2O[C@H](CO)[C@@H](O)[C@H]2O)c(=O)n1` [azacitidine], which “Fold change /veh IRGQ (11745062_a_at)” value is on record?
A: Its value is 1.17.
